Experiment [1] has as its system LNCaP prostate tumor cells. As to the kind of experiment: In vitro cytotoxicity, Alamar Blue assay, LNCaP cell kill. The experiment is classed as cell-based. How it is done: (§1) In vitro Assay of Cytotoxicity of Peptidyl Derivatives of Vinca Drugs
(§2) Specifically, cell cultures of LNCap prostate tumor cells, Colo32ODM cells (designated C320) or T47D cells in 96 well plates was diluted with medium containing various concentrations of a given conjugate (final plate well volume of 200 μl). […] The cells were incubated for 3 days at 37° C., 20 μl of Alamar Blue is added to the assay well. The cells were further incubated and the assay plates were read on a EL-310 ELISA reader at the dual wavelengths of 570 and 600 nm at 4 and 7 hours after addition of Alamar Blue. Relative percentage viability at the various concentration of conjugate tested was then calculated versus control (no conjugate) cultures and an EC50 was determined. Unless otherwise indicated, the acetate salt of the conjugate was tested.
On the technique in general: Alamar Blue is a resazurin reagent that responds to reducing activity.

Experiment [2] concerns Colo320DM cells. As to the kind of experiment: In vitro cytotoxicity, Alamar Blue assay, Colo320DM control cell line (does not express free PSA). The experiment is classed as cell-based. How it is done: as §1
as §2, with “The cytotoxicities of the cleaveable oligopeptide-vinca drug conjugates, prepared as described in Example 3, against a line of cells which is known to be killed by unmodified vinca drug was assessed with an Alamar Blue assay. Specifically,” for “Specifically,”

Experiment [3] deals with T1, free PSA (York PSA) (Homo sapiens, UniProt P07288).
T1 construct: purchased York ('York PSA')
T1 sequence (P07288 25-261): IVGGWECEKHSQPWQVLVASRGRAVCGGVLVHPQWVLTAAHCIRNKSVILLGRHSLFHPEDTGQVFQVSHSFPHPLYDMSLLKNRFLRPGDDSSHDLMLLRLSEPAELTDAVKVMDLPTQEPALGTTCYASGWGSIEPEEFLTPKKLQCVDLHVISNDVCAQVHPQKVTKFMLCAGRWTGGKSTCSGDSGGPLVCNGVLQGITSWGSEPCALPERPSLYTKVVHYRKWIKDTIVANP
As to the kind of experiment: Recognition of oligopeptide-vinca drug conjugates by free PSA (time to 50% cleavage, HPLC). It is filed as biochemical. The settings on record: for Time to 50% Substrate Cleavage by York PSA: conjugate to PSA molar ratio 100 to 1, pH 7.4. On the procedure: The reaction was quenched after various reaction times by the addition of trifluoroacetic acid (TFA) to a final 1% (volume/volume). Alternatively the reaction is quenched with 10 mM ZnCl2. The quenched reaction was analyzed by HPLC on a reversed-phase C18 column using an aqueous 0.1%TFA/acetonitrile gradient. The amount of time (in minutes) required for 50% cleavage of the noted oligopeptide-cytotoxic agent conjugates with enzymatically active free PSA were then calculated.

Setting [4] is: 72 HRS, second part of Table 2, read-out: LNCaP Cell Kill in 72 HRS. {48 HRS} EC 50.
The mark [5] stands for this setting: 72 HRS, second part of Table 2, read-out: Colo320DM EC 50.
Where [6] appears, read: 72 HRS, read-out: LNCaP Cell Kill in 72 HRS. {48 HRS} EC 50.
Setting [7] is: 72 HRS, read-out: Colo320DM EC 50.

Read-outs that look alike come from different tables or passages of the source. Square brackets hold non-standard residues; d marks the D form. dAc‑VIN = 4-desacetylvinblastine; Chg = N[C@H](C(=O)O)C1CCCCC1

Turning to `CCC1(O)CC2CN(CCc3c([nH]c4ccccc34)C(C(=O)OC)(c3cc4c(cc3OC)N(C)C3C(O)(C(=O)OC)C(OC(=O)C(N)Cc5ccccc5)C5(CC)C=CCN6CCC43C65)C2)C1` (stereo not drawn) [(4-O-Phe)-(dAc)-VIN], the EC50 is 3.8 µM in experiment [1] (setting [4]) and 2.2 µM in experiment [2] (setting [5]).

Regarding “4-O-[Ac--SChgQSS-Sar]-dAc-VIN: peptide-vinca drug conjugate, SEQ ID NO 118 (XXQSSG; N-acetyl; desacetylvinblastine conjugate)”, the EC50 stood at 0.8 µM in experiment [1] (setting [4]) and 3 µM in experiment [2] (setting [5]). Also, in experiment [3], the “Time to 50% Substrate Cleavage by York PSA” value is 39 min.

As for “4-O-(Ac-4-trans-L-HypSSChgQ-S-P)-dAc-VIN: peptide-vinca drug conjugate, SEQ ID NO 96 (XSSXQSP; N-acetyl; desacetylvinblastine conjugate)”, the EC50 in experiment [1] (setting [6]) was 47.9 µM; in experiment [1] (in 5% FBS, read-out: LNCaP Cell Kill EC 50 in 5% FBS) it was > 16 µM; in experiment [2] (setting [7]), 83.9 µM; in experiment [2] (in 5% FBS, read-out: Colo320DM EC 50 in 5% FBS), 26 µM. Further, in experiment [3] (1 HOUR), the “Substrate cleavage by York PSA after 1 HOUR” value is reported as 8%.

For “Ac-AbuSSChgQ-SS-(4-O-P)-dAc-VIN: peptide-vinca drug conjugate, SEQ ID NO 109 in Table 1, 108 in Table 2 (XSSXQSSP; N-acetyl; desacetylvinblastine conjugate)”, the EC50 in experiment [1] (setting [4]) was found to be 12.8 µM; in experiment [2] (setting [5]) it was 28.4 µM. For the same compound, the “Time to 50% Substrate Cleavage by York PSA” value in experiment [3] was 7 min.

On to “4-O-(Ac-Abu-SSChgQ-SP)-dAc-VIN: peptide-vinca drug conjugate, SEQ ID NO 90 (XSSXQSP; N-acetyl; desacetylvinblastine conjugate)”, for which the EC50 in experiment [1] (setting [6]) is 9.7 µM; in experiment [1] (in 0.5% FBS, read-out: LNCaP Cell Kill EC 50 in 0.5% FBS), > 5 µM; in experiment [2] (setting [7]) it was 14.5 µM; in experiment [2] (in 0.5% FBS, read-out: Colo320DM EC 50 in 0.5% FBS) it was 23.8 µM. For the same compound, the “Time to 50% Substrate Cleavage by York PSA” value in experiment [3] was 80 min.

For the compound “4-O-(Ac-SChgQ-SSP)-dAc-VIN: peptide-vinca drug conjugate, SEQ ID NO 116 (XXQSSP; N-acetyl; desacetylvinblastine conjugate)”, the results for the EC50 in experiment [1] (setting [4]) and in experiment [2] (setting [5]) were 15 µM and 20 µM, respectively. Moreover, in experiment [3], the “Time to 50% Substrate Cleavage by York PSA” value was found to be 15 min.

Turning to `CCC1(O)CC2CN(CCc3c([nH]c4ccccc34)C(C(=O)OC)(c3cc4c(cc3OC)N(C)C3C(O)(C(=O)OC)C(OC(=O)CO)C5(CC)C=CCN6CCC43C65)C2)C1` (stereo not drawn) [4-hydroxyacetyl-VIN], the EC50 in experiment [1] (setting [4]) is 1.3 µM; in experiment [2] (setting [5]) it was 3.3 µM.

As for “Ac-4-trans-L-HypSSChgQS-(4-O-Ala)-(dAc)-VIN: peptide-vinca drug conjugate, SEQ ID NO 103 (XSSXQSA; N-acetyl; desacetylvinblastine conjugate)”, the EC50 in experiment [1] (setting [4]) was 12.5 µM; in experiment [2] (setting [5]) it was 32.5 µM. In experiment [3], the “Time to 50% Substrate Cleavage by York PSA” value amounted to 23 min.

`CCC1(O)CC2CN(CCc3c([nH]c4ccccc34)C(C(=O)OC)(c3cc4c(cc3OC)N(C)C3C(O)(C(=O)OC)C(OC(=O)C5CCCCN5)C5(CC)C=CCN6CCC43C65)C2)C1` (stereo not drawn) [4-O-pipecolyl-dAc-VIN]: the EC50 in experiment [1] (setting [4]) and in experiment [2] (setting [5]) was 0.7 µM throughout.

“4-O-(Ac-SSChgQS-Gly)-(dAc)-VIN: peptide-vinca drug conjugate, SEQ ID NO 98 (Ac-SS[Chg]QSG-{dAc‑VIN}; also: C-terminal ester to 4-OH of desacetylvinblastine)”: the EC50 in experiment [1] (setting [6]) and in experiment [2] (setting [7]) was 16.3 µM each time. Besides, in experiment [3], the “Time to 50% Substrate Cleavage by York PSA” value was found to be 55 min.

With “4-O-(Ac-4-trans-L-HypSSChgQ-SS-4-trans-L-Hyp)-dAc-VIN: peptide-vinca drug conjugate, SEQ ID NO 95 (XSSXQSSX; N-acetyl; desacetylvinblastine conjugate)”, the EC50 came to 16.3 µM in experiment [1] (setting [6]) and 13.1 µM in experiment [2] (setting [7]). In addition, in experiment [3], the “Time to 50% Substrate Cleavage by York PSA” value worked out at 13 min.

For the compound `CCC1(O)CC2CN(CCc3c([nH]c4ccccc34)C(C(=O)OC)(c3cc4c(cc3OC)N(C)C3C(O)(C(=O)OC)C(OC(=O)C5CCCN5C(=O)C(N)CO)C5(CC)C=CCN6CCC43C65)C2)C1` (stereo not drawn) [4-O-(SP)-dAc-VIN], the values for the EC50 in experiment [1] (setting [4]) and in experiment [2] (setting [5]) were 0.1 µM and 0.3 µM, respectively.

`CCC1(O)CC2CN(CCc3c([nH]c4ccccc34)C(C(=O)OC)(c3cc4c(cc3OC)N(C)C3C(O)(C(=O)OC)C(OC(=O)C(C)N)C5(CC)C=CCN6CCC43C65)C2)C1` (stereo not drawn) [(4-O-Ala)-(dAc)-VIN]: the EC50 in experiment [1] (setting [4]) was 0.6 µM; in experiment [2] (setting [5]), 4.2 µM.

In the case of `CCC1(O)CC2CN(CCc3c([nH]c4ccccc34)C(C(=O)OC)(c3cc4c(cc3OC)N(C)C3C(O)(C(=O)OC)C(OC(=O)C5CCCN5)C5(CC)C=CCN6CCC43C65)C2)C1` (stereo not drawn) [4-O-(prolyl)-dAc-VIN, 4-des- Acetylvinblastine 4-O-(Prolyl) ester], the EC50 in experiment [1] (setting [4]) was 0.7 µM; in experiment [2] (setting [5]), 4.1 µM.

Regarding `CCC1(O)CC2CN(CCc3c([nH]c4ccccc34)C(C(=O)OC)(c3cc4c(cc3OC)N(C)C3C(O)(C(=O)OC)C(OC(=O)C(C)NC)C5(CC)C=CCN6CCC43C65)C2)C1` (stereo not drawn) [4-O-[N-Me-dA]-dAc-VIN], the EC50 came to 1 µM in experiment [1] (setting [4]) and 1.7 µM in experiment [2] (setting [5]).

Regarding `CCC1(O)CC2CN(CCc3c([nH]c4ccccc34)C(C(=O)OC)(c3cc4c(cc3OC)N(C)C3C(O)(C(=O)OC)C(OC(=O)C5CC(O)CN5)C5(CC)C=CCN6CCC43C65)C2)C1` [(4-O-4-trans-L-Hyp)-dAc-VIN], the EC50 is 0.6 µM in experiment [1] (setting [6]) and 1.1 µM in experiment [2] (setting [7]).

With `CCC1(O)CC2CN(CCc3c([nH]c4ccccc34)C(C(=O)OC)(c3cc4c(cc3OC)N(C)C3C(O)(C(=O)OC)C(OC(=O)C5CCCN5C(=O)C(CO)NC(=O)C(N)CO)C5(CC)C=CCN6CCC43C65)C2)C1` (stereo not drawn) [4-O-(SSP)-dAc-VIN], the EC50 in experiment [1] (setting [4]) was determined as 2 µM; in experiment [2] (setting [5]) it was 14.5 µM.

`CC[C@]1(O)C[C@H]2CN(CCc3c([nH]c4ccccc34)[C@@](C(=O)OC)(c3cc4c(cc3OC)N(C)[C@H]3[C@@](O)(C(=O)OC)[C@H](OC(=O)CNC)[C@]5(CC)C=CCN6CC[C@]43[C@@H]65)C2)C1` [4-O-sarcosyl-(dAc)-VIN]: the figures for the EC50 in experiment [1] (setting [6]) and in experiment [2] (setting [7]) were 1.3 µM and 1.8 µM, respectively.

Turning to `CC[C@]1(O)C[C@@H]2CN(CCc3c([nH]c4ccccc34)[C@@](C(=O)OC)(c3cc4c(cc3OC)N(C)[C@H]3[C@@](O)(C(=O)OC)[C@H](OC(C)=O)[C@]5(CC)C=CCN6CC[C@]43[C@@H]65)C2)C1` [VINBLASTINE, vinblastine, reference compound], the EC50 in experiment [1] (Homo sapiens, 72 HRS, read-out: LNCaP Cell Kill in 72 HRS. {48 HRS} EC 50) amounted to 0.5 µM; in experiment [2] (Homo sapiens, COLO 320DM, 72 HRS, read-out: Colo320DM EC 50), 0.5 µM.

For `CC[C@]1(O)C[C@@H]2CN(CCc3c([nH]c4ccccc34)[C@@](C(=O)OC)(c3cc4c(cc3OC)N(C)[C@H]3[C@@](O)(C(=O)OC)[C@H](OC(=O)CN)[C@]5(CC)C=CCN6CC[C@]43[C@@H]65)C2)C1` [4-O-glycine-(dAc)-VIN], the values for the EC50 in experiment [1] (setting [6]) and in experiment [2] (setting [7]) were 0.3 µM and 1.8 µM, respectively.

Take `CC[C@]1(O)C[C@H]2CN(CCc3c([nH]c4ccccc34)[C@@](C(=O)OC)(c3cc4c(cc3OC)N(C)[C@H]3[C@@](O)(C(=O)OC)[C@H](OC(=O)[C@@H](N)CC(C)C)[C@]5(CC)C=CCN6CC[C@]43[C@@H]65)C2)C1` [4-O-leucyl-(dAc)-VIN]: the EC50 in experiment [1] (setting [4]) and in experiment [2] (setting [5]) was 4.5 µM each time.

Regarding `CCC1(O)CC2CN(CCc3c([nH]c4ccccc34)C(C(=O)OC)(c3cc4c(cc3OC)N(C)C3C(O)(C(=O)OC)C(OC(=O)C5CCCN5)C5(CC)C=CCN6CCC43C65)C2)C1` (stereo not drawn) [4-O-(d)-prolyl-(dAc)-VIN ester], the EC50 in experiment [1] (setting [4]) was 2 µM; in experiment [2] (setting [5]) it was 4.1 µM.

As for `CCC(N)C(=O)O[C@@H]1[C@]2(CC)C=CCN3CC[C@@]4(c5cc([C@@]6(C(=O)OC)C[C@@H]7CN(CCc8c6[nH]c6ccccc86)C[C@](O)(CC)C7)c(OC)cc5N(C)[C@H]4[C@@]1(O)C(=O)OC)[C@@H]32` (stereo partly drawn) [4-O-Abu-(dAc)-VIN, I isoform], the results for the EC50 in experiment [1] (setting [4]) and in experiment [2] (setting [5]) were 3.9 µM and 2.3 µM, respectively.

`CCC(N)C(=O)OC1C2(CC)C=CCN3CCC4(c5cc(C6(C(=O)OC)CC7CN(CCc8c6[nH]c6ccccc86)CC(O)(CC)C7)c(OC)cc5N(C)C4C1(O)C(=O)OC)C32` (racemic) [4-O-Abu-(dAc)-VIN, racemic mixture]: the figures for the EC50 in experiment [1] (setting [4]) and in experiment [2] (setting [5]) were 3.8 µM and 5.5 µM, respectively.
